The subject of data set [1] is P. yoelii sporozoites. The note with it: sporozoites preincubated with E-64.
Procedure: For assays with P. berghei and P. yoelii, Hepa 1-6 cells (ATCC CRL-1830, American Type Culture Collection, Manassas, Va.), a mouse hepatoma cell line permissive for P. yoelii sporozoite development (Mota, et al. (2000)) was seeded (8×10^4 cells/well) in Lab-Tek permanox chamber slides (Nalgene Nunc Corp., Naperville, II.) and grown until confluent.
For assays with P. falciparum, HepG2 cells (ATCC HB8065, American Type Culture Collection) were used. On the day of the experiment, sporozoites were pre-incubated with DMEM/BSA alone or with the indicated protease inhibitor for two hours at 28° C. and plated on cells in the continued presence of the inhibitor for one hour at 37° C.
In a control, Hepa 1-6 cells were incubated with E-64 for two hours at 37° C., the medium was removed and then untreated P. berghei sporozoites were added. The inhibitors used were: 10 mM E-64; 1 mM PMSF; 75 mM leupeptin; 0.3 mM aprotinin; 100 mM 3,4 DCl; 1 mM pepstatin. […] Cells were then permeabilized with cold methanol and stained again with mAbs 3D11, 2F6 or 2A10 followed by anti-mouse Ig conjugated to FITC. All sporozoites were FITC-positive whereas only extracellular sporozoites stained with rhodamine. The percentage of sporozoites that invaded the cells is calculated using the following equation:
%invasion=total sporozites−extracellular sporozites×100/total sporozites
In data set [2] the test system is P. berghei sporozoites. Nature of the data set: Sporozoite gliding motility assay, P. berghei. The data set is classed as cell-based, Plasmodium berghei. As for the experimental part:
Glass 8-chambered Lab-tek wells (Nalgene) were coated with 10 μg/ml 3D11 in PBS overnight at 25° C. and then washed three times with PBS. 2×10^4 P. berghei sporozoites were incubated with 50 μM allicin in DMEM without Cys/Met for ten minutes at 28° C., the medium removed and replaced with DMEM/3% BSA containing 50 μM or 4.2 μM allicin before sporozoites were added to the coated Lab-Tek wells. The sporozoites were incubated for one hour at 37° C., the medium was removed, and the wells were fixed with 4% paraformaldehyde, washed, blocked with PBS/1% BSA, and incubated with biotinylated 3D11 followed by Streptavidin-FITC (1:100 dilution; Amersham Pharmacia). All incubations were performed at 37° C. for one hour. Controls included untreated sporozoites and sporozoites added to wells in the presence of 1 μM cytochalasin D. For each group, gliding motility was assessed by determining the percentage of sporozoites associated with trails, and for those sporozoites with trails, counting the number of circles in each trail.

The test system of data set [3] is P. yoelii sporozoites. The following applies: preincubated with 10 mM E-64. The protocol: Lab-Tek glass slides (model 177402, Nalgene Nunc Corp., Naperville, Il.) were coated with […] of mAb 3D11 (P. berghei) or mAbs 2F6 and NYS1 (P. yoelii) and sporozoites pre-incubated with DMEM/BSA alone or supplemented with 10 mM E-64 or CD for two hours at 28° C. were added in the continued presence of the inhibitor for one hour at 37° C. in a humidified chamber with 5% CO2. The slides were then fixed with 4% paraformaldehyde, incubated with 1:100 dilution of either biotinylated mAb 3D11 (P. berghei) or biotinylated mAb NYS1 (P. yoelii) followed by streptavidin-FITC.

For data set [4], the system named is P. berghei sporozoites. The protocol: Panel A illustrates P. berghei sporozoites were metabolically labeled with [35 S]-Cys/Met and then washed and kept on ice (lane 1) or chased with cold medium for two hours at 28° C., in the absence (lane 2) or presence of the indicated protease inhibitors (lanes 3-11). After the chase, sporozoites were lysed, CSP was immunoprecipitated and analyzed by SDS-PAGE and autoradiography (abbreviations: Apr, aprotinin; DCl, 3,4 DCl; Leu, leupeptin; Pep, pepstatin; Phen, 1,10 phenanthroline). Panel B illustrates P. falciparum sporozoites were metabolically labeled as above and then kept on ice (lane 1) or chased with cold medium for ninety minutes in the absence (lane 2) or presence of E-64 (lane 3). Samples were processed as outlined above. Panel C illustrates P. berghei sporozoites were preincubated with buffer (lane 1) or the indicated compounds, washed, metabolically labeled with [^35S]-Cys/Met, lysed, and CSP was immunoprecipitated and analyzed by SDS-PAGE and autoradiography. (Abbreviations: Az=sodium azide).
In addition to the above, pulse-chase metabolic labeling experiments were performed with sporozoites of the human malaria parasite, Plasmodium falciparum. […] In order to insure that the protease inhibitors were not toxic to sporozoites, sporozoites were incubated with the various inhibitors for two hours and then propidium iodide (hereinafter, “PI”) was added, which is a fluorescent molecule that enters permeabilized cells.

The test system of data set [5] is sporozoite migration through cells. The following applies: 10 mM E-64, rhodamine-dextran positive cells. The protocol:
Migration assays were performed as previously described (Mota, M., et al.). Sporozoites were pre-incubated±10 mM E-64 for two hours at 28° C. and added to monolayers of Hepa 1-6 cells in the continued presence of inhibitor with 1 mg/ml rhodamine-dextran, 10,000 MW (Molecular Probes). After one hour at 37° C., the cells were washed, fixed and the number of rhodamine-positive cells in each field was counted.

The conditions of data set [6]: Brodnitz, M. H., et al.; cited from earlier work.
The test system of data set [7] is P. berghei sporozoites. Nature of the data set: Propidium iodide toxicity assay on sporozoites. It counts as cell-based, Plasmodium berghei. The following applies: for toxicity to sporozoites (propidium iodide): ten minutes. As for the experimental part: When sporozoites were incubated with specific inhibitors, their concentrations were as follows: 10 […] E-64; 1 mM phenylmethylsulfonyl fluoride (PMSF); 0.3 mM aprotinin; 100 mM 3,4 DCl; 75 mM leupeptin; 100 mM TLCK; 1 mM pepstatin; 1 mM 1,10 phenanthroline; 5 mM EDTA; 0.5% sodium azide. To check for toxicity by propidium iodide (PI) staining, P. berghei sporozoites were incubated in the presence or absence of the various protease inhibitors for two hours at 28° C., PI was then added to a final concentration of […] for five minutes at 28° C. The sporozoites were washed and viewed under a fluorescent microscope.
P. berghei sporozoites were incubated with the indicated concentrations of allicin for ten or sixty minutes at 28° C., washed with DMEM, and then incubated with 1 μg/ml propidium iodide for five minutes at 25° C. The number of fluorescent sporozoites in each sample was counted using a Nikon Eclipse E600 microscope. Control samples consisted of sporozoites that were incubated for sixty minutes at 28° C. in DMEM without allicin and sporozoites that were heat killed at 65° C. for ten minutes.

The mark [8] stands for this setting: 50 μM allicin ten minutes, then diluted to 4.2 μM.

In the case of `CC(C)C[C@H](NC(=O)[C@H]1O[C@@H]1C(=O)O)C(=O)NCCCCN=C(N)N` (relative stereo) [E-64, L-trans-epoxysuccinyl-leucylamide-[4-guanido]-butane], the “effect on invasion by P. yoelii sporozoites” value in data set [1] is “significantly inhibited”. For the same compound, the “average number of circles per gliding sporozoite” value in data set [2] (E-64 treated versus untreated sporozoites) was “not different”. For the same compound, the “percentage of sporozoites that exhibited gliding motility” value in data set [2] (P. berghei, preincubated with 10 mM E-64) was “no effect”; in data set [3], “no effect”. Also, the “CSP synthesis after incubation with inhibitor” value in data set [4] is given as “not affected”. Besides, the “sporozoite migration through cells” value in data set [5] is “did not inhibit sporozoite migration through cells”.

Turning to `C=CCS[S+]([O-])CC=C` (stereo not drawn) [allicin], the stability in vivo entry in data set [6] was “rapid decomposition in vivo”. Further, the “number of fluorescent (propidium iodide) sporozoites” value in data set [7] (50 μM allicin 10 minutes, then 4.2 μM for 50 minutes) is reported as “did not increase the number of fluorescent sporozoites compared to the untreated control”. Further, the “increase in number of sporozoites taking up propidium iodide” value in data set [7] (50 μM allicin, one hour) came to 1.5 fold. The “toxicity to sporozoites (propidium iodide)” value in data set [7] (50 μM allicin) was “did not kill sporozoites”; in data set [7] (allicin concentrations higher than 50 μM) it was “toxic to the sporozoites even after only ten minutes of exposure”. In data set [7] (1 or 10 μM allicin for up to one hour), the “percentage of sporozoites that took up propidium iodide” value was “no different from the untreated control”. Further, the gliding motility entry is on record as “no effect on gliding motility” in data set [2] (setting [8]) and “completely inhibited” in data set [2] (kept in 50 μM allicin for the duration of the assay). Further, the “percentage gliding and number of circles per trail versus controls” value in data set [2] (setting [8]) is given as “the same”.

These data come from US20130022612A1, “METHODS AND COMPOSITIONS FOR MALARIA PROPHYLAXIS” (priority 2004, published 2013).
